According to the supplement of paper PMC11061612:

Tests used:
Experiment in all cases: Bliss excess, mean over the matrix (fraction); higher = more synergy
[1] = system: SNU-407 (Colorectal Carcinoma)
Outline: (§1)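 After 24 hours at 37°C and 5% CO2 in 1536-well plates, cells in DMEM/F12 or RPMI plus 10% FBS received two-drug dose matrices for 72 hours. Viability came from CellTiter-Glo 2.0 luminescence and was scaled as inhibition, anchored at 0 by vehicle wells and at 1 by blank wells. Combination Emax is taken as the second-highest inhibition in the matrix, and Bliss excess as the observed combination effect less EA + EB − EA·EB, with EA and EB the single-agent effects.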

[2] = system: SK-CO-1 (Colorectal Carcinoma)
Outline: as §1

[3] = system: NCI-H1876 (Small Cell Lung Carcinoma)
Outline: as §1

[4] = system: ZR-75-30 (Breast Carcinoma)
Outline: as §1

[5] = system: OAW-28 (Ovarian Carcinoma)
Outline: as §1

NB1 (Neuroblastoma) = system: NB1 (Neuroblastoma)
Outline: as §1

[6] = system: LCLC-103H (Non-Small Cell Lung Carcinoma)
Outline: as §1

[7] = system: MM1S (Plasma Cell Myeloma)
Outline: as §1

[8] = system: OVCAR-3 (Ovarian Carcinoma)
Outline: as §1

[9] = system: NCI-H1963 (Small Cell Lung Carcinoma)
Outline: as §1

IST-MEL1 (Melanoma) = system: IST-MEL1 (Melanoma)
Outline: as §1

[10] = system: NMC-G1 (Low Grade Glioma)
Outline: as §1

NCI-H2373 (Mesothelioma) = system: NCI-H2373 (Mesothelioma)
Outline: as §1

[11] = system: SAT (Head and Neck Carcinoma)
Outline: as §1

[12] = system: LS-1034 (Colorectal Carcinoma)
Outline: as §1

[13] = system: T84 (Colorectal Carcinoma)
Outline: as §1

[14] = system: SUP-M2 (T-Cell Non-Hodgkin's Lymphoma)
Outline: as §1

[15] = system: SiHa (Cervical Carcinoma)
Outline: as §1

NCI-H226 (Mesothelioma) = system: NCI-H226 (Mesothelioma)
Outline: as §1

T47D (Breast Carcinoma) = system: T47D (Breast Carcinoma)
Outline: as §1

| Compound | Bliss excess [1] | Bliss excess [2] | Bliss excess [3] | Bliss excess [4] | Bliss excess [5] | Bliss excess (NB1 (Neuroblastoma)) | Bliss excess [6] | Bliss excess [7] | Bliss excess [8] | Bliss excess [9] | Bliss excess (IST-MEL1 (Melanoma)) | Bliss excess [10] | Bliss excess (NCI-H2373 (Mesothelioma)) | Bliss excess [11] | Bliss excess [12] | Bliss excess [13] | Bliss excess [14] | Bliss excess [15] | Bliss excess (NCI-H226 (Mesothelioma)) | Bliss excess (T47D (Breast Carcinoma)) |
| --- | --- | --- | --- | --- | --- | --- | --- | --- | --- | --- | --- | --- | --- | --- | --- | --- | --- | --- | --- | --- |
| CN(C)CCCOc1ccc(-c2ccc3ncc4c(c3c2)n(C2CCOCC2)c(=O)n4C)cn1 [AZD0156] + C=CCn1c(=O)c2cnc(Nc3ccc(N4CCN(C)CC4)cc3)nc2n1-c1cccc(C(C)(C)O)n1 [AZD1775] (first compound max 1 µM, partner max 1 µM) | -0.0136 | -0.0523 | 0.0171 | -0.0398 | -0.0386 | -0.0109 | -0.0079 | -0.0653 | -0.02 | -0.0147 | -0.0225 | -0.0467 | -0.0126 | -0.0388 | -0.0318 | -0.0631 | 0.0535 | -0.0334 | -0.0862 | 0.0108 |
| CN(C)CCCOc1ccc(-c2ccc3ncc4c(c3c2)n(C2CCOCC2)c(=O)n4C)cn1 [AZD0156] + CCN(CCO)CCCOc1ccc2c(Nc3cc(CC(=O)Nc4cccc(F)c4)[nH]n3)ncnc2c1 [AZD2811] (first compound max 1 µM, 7x7, partner max 1 µM) | -0.0247 | 0.0205 | -0.0557 | -0.0415 | -0.0061 | -0.0137 | -0.0395 | 0.0135 | -0.01 | -0.0463 | -0.0131 | -0.0855 | -0.0048 | -0.0362 | -0.0261 | -0.0248 | -0.0286 | -0.0083 | -0.0676 | -0.0062 |
| CN(C)CCCOc1ccc(-c2ccc3ncc4c(c3c2)n(C2CCOCC2)c(=O)n4C)cn1 [AZD0156] + C[C@@H]1COCCN1C2=NC(=NC(=C2)C3(CC3)[S@](=N)(=O)C)C4=C5C=CNC5=NC=C4 [AZD6738] (first compound max 1 µM, 7x7, partner max 10 µM) | -0.0322 | -0.0865 | 0.0226 | -0.0305 | -0.0279 | 0.0522 | -0.0352 | 0.0173 | 0.0353 | 0.0086 | -0.0196 | -0.0603 | -0.0065 | -0.0116 | 0.0161 | 0.0182 | 0.0555 | -0.0456 | -0.0581 | -0.0223 |
| C=CCn1c(=O)c2cnc(Nc3ccc(N4CCN(C)CC4)cc3)nc2n1-c1cccc(C(C)(C)O)n1 [AZD1775] + C[C@@H]1COCCN1C2=NC(=NC(=C2)C3(CC3)[S@](=N)(=O)C)C4=C5C=CNC5=NC=C4 [AZD6738] (first compound max 1 µM, partner max 10 µM) | 0.0031 | -0.0067 | 0.0099 | 0.0186 | 0.0012 | -0.0161 | 0.0108 | -0.0128 | 0.113 | 0.036 | 0.021 | -0.0028 | 0.025 | -0.0229 | 0.0097 | 0.0084 | -0.0015 | 0.0019 | -0.0327 | -0.0302 |
| C=CCn1c(=O)c2cnc(Nc3ccc(N4CCN(C)CC4)cc3)nc2n1-c1cccc(C(C)(C)O)n1 [AZD1775] + O=C(c1cc(Cc2n[nH]c(=O)c3ccccc23)ccc1F)N1CCN(C(=O)C2CC2)CC1 [Olaparib] (first compound max 1 µM, partner max 10 µM) | -0.0364 | -0.0858 | 0.0311 | -0.0461 | -0.0237 | -0.0795 | -0.0334 | -0.0321 | 0.0351 | -0.0252 | -0.0596 | -0.0352 | -0.013 | -0.0474 | 0.0299 | -0.0136 | 0.0276 | -0.0444 | -0.035 | -0.0095 |
| CCN(CCO)CCCOc1ccc2c(Nc3cc(CC(=O)Nc4cccc(F)c4)[nH]n3)ncnc2c1 [AZD2811] + C=CCn1c(=O)c2cnc(Nc3ccc(N4CCN(C)CC4)cc3)nc2n1-c1cccc(C(C)(C)O)n1 [AZD1775] (first compound max 1 µM, partner max 1 µM) | -0.015 | -0.0559 | -0.0318 | -0.0422 | 0.0277 | -0.0433 | 0.0066 | 0.0048 | -0.0154 | -0.0448 | 0.0196 | -0.0847 | -0.0482 | 0.033 | 0.0033 | -0.0627 | -0.036 | 0.0089 | -0.0708 | -0.0236 |
| CCN(CCO)CCCOc1ccc2c(Nc3cc(CC(=O)Nc4cccc(F)c4)[nH]n3)ncnc2c1 [AZD2811] + C[C@@H]1COCCN1C2=NC(=NC(=C2)C3(CC3)[S@](=N)(=O)C)C4=C5C=CNC5=NC=C4 [AZD6738] (first compound max 1 µM, 7x7, partner max 10 µM) | -0.094 | -0.0309 | -0.0316 | -0.0533 | -0.0207 | -0.0802 | -0.119 | 0.0151 | -0.0269 | -0.0777 | -0.0456 | -0.117 | -0.0139 | -0.0581 | -0.0473 | -0.0103 | -0.0545 | -0.0137 | -0.069 | -0.0493 |
| CCN(CCO)CCCOc1ccc2c(Nc3cc(CC(=O)Nc4cccc(F)c4)[nH]n3)ncnc2c1 [AZD2811] + O=C(c1cc(Cc2n[nH]c(=O)c3ccccc23)ccc1F)N1CCN(C(=O)C2CC2)CC1 [Olaparib] (first compound max 1 µM, 7x7, partner max 10 µM) | -0.0292 | 0.0223 | -0.114 | -0.0225 | -0.0474 | -0.0581 | -0.0275 | 0.0541 | -0.0051 | -0.0623 | 0.0192 | -0.025 | 0.0244 | -0.0469 | -0.0253 | -0.0067 | -0.0429 | -0.0053 | -0.0448 | 0.005 |
| CN(CCO)CC[C@H](CSc1ccccc1)Nc1ccc(S(=O)(=O)NC(=O)c2ccc(N3CCC([C@@H](O)c4ccccc4-c4ccc(Cl)cc4)CC3)cc2)cc1S(=O)(=O)C(F)(F)F [AZD4320] + C1CN(CCC1(C(=O)N[C@@H](CCO)C2=CC=C(C=C2)Cl)N)C3=NC=NC4=C3C=CN4 [Capivasertib] (first compound max 1 µM, 7x7, partner max 3 µM) | -0.0633 | -0.0462 | -0.0593 | -0.0914 | -0.0345 | -0.0031 | -0.0548 | -0.0076 | -0.0393 | 0.0172 | -0.0226 | -0.0838 | -0.0351 | -0.0363 | -0.0089 | -0.0269 | -0.0192 | -0.0476 | -0.0589 | -0.0554 |
| CN(CCO)CC[C@H](CSc1ccccc1)Nc1ccc(S(=O)(=O)NC(=O)c2ccc(N3CCC([C@@H](O)c4ccccc4-c4ccc(Cl)cc4)CC3)cc2)cc1S(=O)(=O)C(F)(F)F [AZD4320] + C[C@@H]1COCCN1C2=NC(=NC(=C2)C3(CC3)[S@](=N)(=O)C)C4=C5C=CNC5=NC=C4 [AZD6738] (first compound max 1 µM, 7x7, partner max 10 µM) | -0.0568 | -0.0858 | 0.0189 | -0.0601 | 0.0382 | -0.0023 | -0.0362 | -0.0008 | -0.0231 | 0.0129 | -0.0336 | -0.0724 | -0.0303 | – | -0.037 | -0.0344 | -0.0128 | -0.0492 | -0.0819 | -0.0566 |
| Cc1c2c(nn1C)CSCc1cc(n(C)n1)CSc1cc(c3ccccc3c1)OCCCc1c(C(=O)O)n(C)c3c-2c(Cl)ccc13 [AZD5991] + C[C@@H](Nc1cc(F)cc(F)c1)c1cc(C(=O)N(C)C)cc2c(=O)cc(N3CCOCC3)oc12 [AZD8186] (first compound max 1 µM, 7x7, partner max 3 µM) | -0.0139 | -0.0398 | 0.0156 | 0.0179 | 0.0538 | -0.0275 | 0.0125 | 0.0187 | 0.0423 | 0.0155 | -0.0184 | -0.059 | -0.0288 | -0.0731 | -0.0142 | – | -0.0203 | 0.0044 | -0.0268 | -0.0323 |
| Cc1c2c(nn1C)CSCc1cc(n(C)n1)CSc1cc(c3ccccc3c1)OCCCc1c(C(=O)O)n(C)c3c-2c(Cl)ccc13 [AZD5991] + Cn1cnc2c(F)c(Nc3ccc(Br)cc3Cl)c(C(=O)NOCCO)cc21 [Selumetinib] (first compound max 1 µM, 7x7, partner max 3 µM) | 0.0342 | -0.0218 | 0.0841 | -0.0609 | 0.089 | -0.0181 | -0.0774 | 0.0828 | 0.0353 | 0.0518 | – | -0.0243 | -0.0345 | 0.0193 | 0.0513 | 0.0438 | 0.048 | 0.0015 | -0.0684 | -0.0092 |
| CCc1c2c(nc3ccc(O)cc13)-c1cc3c(c(=O)n1C2)COC(=O)[C@]3(O)CC [SN-38] + O=C(c1cc(Cc2n[nH]c(=O)c3ccccc23)ccc1F)N1CCN(C(=O)C2CC2)CC1 [Olaparib] (first compound max 0.3 µM, 7x7, partner max 10 µM) | – | 0.0147 | – | -0.0169 | – | – | 0.0352 | – | 0.0986 | 0.099 | 0.0125 | -0.0071 | -0.0716 | 0.0387 | 0.0494 | -0.0279 | 0.0641 | 0.0271 | -0.0493 | 0.0623 |
